The test system of one experiment is RIG-I. It is filed as cell-based, human.
In experiment [1] the target is T1, Recombinant human RIG-I protein (Homo sapiens, UniProt O95786).
T1 construct: trypsin treatment of the full-length RIG-I protein (approximately 110 kDa) yielded a 55-kDa RIG-I fragment; Flag; made in house; host or cells: HEK-293T
T1 sequence (O95786 1-925): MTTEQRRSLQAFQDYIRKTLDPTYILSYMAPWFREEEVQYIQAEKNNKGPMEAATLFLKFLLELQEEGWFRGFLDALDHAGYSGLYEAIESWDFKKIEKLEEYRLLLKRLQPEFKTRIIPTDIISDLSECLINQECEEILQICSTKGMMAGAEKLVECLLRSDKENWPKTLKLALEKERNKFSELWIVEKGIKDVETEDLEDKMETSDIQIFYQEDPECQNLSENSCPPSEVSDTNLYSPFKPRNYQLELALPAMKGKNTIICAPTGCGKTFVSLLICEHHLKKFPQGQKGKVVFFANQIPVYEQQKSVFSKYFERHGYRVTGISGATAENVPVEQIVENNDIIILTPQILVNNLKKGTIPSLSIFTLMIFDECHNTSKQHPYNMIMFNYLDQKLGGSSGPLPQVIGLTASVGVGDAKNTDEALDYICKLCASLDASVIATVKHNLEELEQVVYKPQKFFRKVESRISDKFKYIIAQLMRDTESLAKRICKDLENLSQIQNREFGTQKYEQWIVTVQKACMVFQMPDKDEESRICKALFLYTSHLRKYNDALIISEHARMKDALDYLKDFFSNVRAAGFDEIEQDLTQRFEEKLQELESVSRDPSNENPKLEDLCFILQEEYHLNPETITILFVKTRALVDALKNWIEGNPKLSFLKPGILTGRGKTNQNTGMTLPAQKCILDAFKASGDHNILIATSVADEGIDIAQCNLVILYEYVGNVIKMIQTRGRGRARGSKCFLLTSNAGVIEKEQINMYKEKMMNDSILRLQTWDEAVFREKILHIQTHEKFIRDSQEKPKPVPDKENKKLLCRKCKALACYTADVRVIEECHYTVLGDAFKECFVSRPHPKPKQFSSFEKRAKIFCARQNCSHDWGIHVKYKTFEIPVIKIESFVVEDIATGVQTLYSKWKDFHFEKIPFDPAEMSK
The experiment in a line: Limited trypsin digestion of RIG-I:RNA complexes. It is filed as biochemical. The note with it: 2 h trypsin digestion, 2 mM AMP-PNP.

The subject of experiment [2] is rgRSV or rgRSV-G1857A-G1853A. The class given is cell-based, RSV A2 strain. The note with it: 15 μg/ml Cc3Ado; rgRSV and rgRSV-G1853A-G1857A-infected cells; day 3.
The test system of experiment [3] is rgRSV or rgRSV-G1857A-G1853A. The class given is cell-based, RSV A2 strain. The note with it: 50 μg/ml Cc3Ado, day 3.
Experiment [4] concerns Rous sarcoma virus, HIV-1, RSV, parainfluenza virus type 3, VSV, measles virus, and reovirus. The following applies: shown previously [52, 53, 59]; cited from earlier work.

As to Poly(I.C), the “expression of RIG-I in RNA-transfected cells” value with RIG-I is on record as “activated RIG-I expression in a dose-dependent manner”. Besides, in experiment [1], the “trypsin-resistant 80-kDa RIG-I fragment” value is listed as “yielded an 80-kDa fragment”.

As to Carbocyclic 3-deazaadenosine [Cc3Ado], the “effect on RSV spread (GFP) in HEp-2 cells” value in experiment [2] is “inhibited rgRSV spread over 3 days”. Also, the “effect on GFP signal in rgRSV-G1853A-G1857A-infected HAE cells” value in experiment [3] is given as “the GFP signal was further reduced”. Consider `Nc1nccc2c1ncn2[C@@H]1O[C@H](CO)[C@@H](O)[C@H]1O` [3-deazaadenosine], for which the “inhibition of virus replication” value in experiment [4] is on record as “capable of inhibiting the replication of diverse viruses”.
